Data: ChEMBL document CHEMBL1201862, “PubChem BioAssay data set” (2004)
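Cells were grown in 96-well plates and exposed to each compound for 48 hours at five concentrations; endpoints were interpolated linearly between bracketing concentrations, or set to the highest concentration if not reached. At the GI50, growth is halved.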 Active and inactive are the calls of the source. Cut-off read from the data, not from the text of the source: active = GI50 up to about 1.1 µM and inactive = higher.

Legend:
Assay in all cases: NCI anticancer screen, dose series, 48 h
[1] = test system: DU-145
[2] = test system: K562
[3] = test system: M14
[4] = test system: NCI-H23
[5] = test system: MOLT-4
[6] = test system: EKVX
[7] = test system: IGROV-1
[8] = test system: NCI-H522
[9] = test system: CCRF-CEM
[10] = test system: PC-3
[11] = test system: HOP-62
[12] = test system: OVCAR-5
[13] = test system: TK-10
[14] = test system: U-251
[15] = test system: 786-0
[16] = test system: SF-295
[17] = test system: OVCAR-8
[18] = test system: SNB-19
[19] = test system: T47D
[20] = test system: A498
[21] = test system: HOP-92
[22] = test system: SF-268
[23] = test system: COLO 205
[24] = test system: OVCAR-4
[25] = test system: SK-MEL-2
[26] = test system: SK-MEL-5
[27] = test system: MDA-N
[28] = test system: HCC 2998
[29] = test system: RXF 393
[30] = test system: HT-29
[31] = test system: HCT-15
[32] = test system: OVCAR-3
[33] = test system: MDA-MB-231
[34] = test system: ACHN
[35] = test system: SK-OV-3
[36] = test system: MCF7
[37] = test system: UACC-62
[38] = test system: NCI/ADR-RES
[39] = test system: Hs-578T
[40] = test system: SR
[41] = test system: LOX IMVI
[42] = test system: KM12
[43] = test system: SN12C
[44] = test system: SF-539
[45] = test system: HCT-116
[46] = test system: CAKI-1
[47] = test system: NCI-H226
[48] = test system: SW-620
[49] = test system: SK-MEL-28
[50] = test system: Malme-3M
[51] = test system: NCI-H460
[52] = test system: MDA-MB-435
[53] = test system: UO-31
[54] = test system: BT-549
[55] = test system: HL-60
[56] = test system: A549
[57] = test system: UACC-257
[58] = test system: RPMI-8226

In the case of Cn1nc2c(c1N)Cc1c(nn(C)c1N)-c1ccccc1-2, the GI50 [1] is reported as > 100 µM (inactive), the GI50 [2] is reported as > 100 µM (inactive) and the GI50 [3] is reported as > 100 µM (inactive). The GI50 [4] was > 100 µM (inactive), the GI50 [5] was > 100 µM (inactive) and the GI50 [6] was > 100 µM (inactive). The GI50 [7] was > 100 µM (inactive), the GI50 [8] was > 100 µM (inactive) and the GI50 [9] was > 100 µM (inactive). For the same compound, the GI50 [10] was > 100 µM (inactive), the GI50 [11] was > 100 µM (inactive) and the GI50 [12] was > 100 µM (inactive). The GI50 [13] was > 100 µM (inactive), the GI50 [14] was > 100 µM (inactive) and the GI50 [15] was > 100 µM (inactive). For the same compound, the GI50 [16] was > 100 µM (inactive), the GI50 [17] was > 100 µM (inactive) and the GI50 [18] was > 100 µM (inactive). The GI50 [19] was > 100 µM (inactive), the GI50 [20] was 20.2 µM (inactive) and the GI50 [21] was > 100 µM (inactive). The GI50 [22] was > 100 µM (inactive), the GI50 [23] was > 100 µM (inactive) and the GI50 [24] was > 100 µM (inactive). For the same compound, the GI50 [25] was > 100 µM (inactive), the GI50 [26] was > 100 µM (inactive) and the GI50 [27] was > 100 µM (inactive). The GI50 [28] was > 100 µM (inactive), the GI50 [29] was > 100 µM (inactive) and the GI50 [30] was > 100 µM (inactive). For the same compound, the GI50 [31] was over 100 µM, the GI50 [32] was > 100 µM (inactive) and the GI50 [33] was > 100 µM (inactive). The GI50 [34] was > 100 µM (inactive), the GI50 [35] was > 100 µM (inactive) and the GI50 [36] was > 100 µM (inactive). For the same compound, the GI50 [37] was > 100 µM (inactive), the GI50 [38] was > 100 µM (inactive) and the GI50 [39] was > 100 µM (inactive). The GI50 [40] was > 100 µM (inactive), the GI50 [41] was > 100 µM (inactive) and the GI50 [42] was > 100 µM (inactive). For the same compound, the GI50 [43] was > 100 µM (inactive), the GI50 [44] was > 100 µM (inactive) and the GI50 [45] was > 100 µM (inactive). The GI50 [46] was > 100 µM (inactive), the GI50 [47] was > 100 µM (inactive) and the GI50 [48] was > 100 µM (inactive). The GI50 [49] was > 100 µM (inactive), the GI50 [50] was > 100 µM (inactive) and the GI50 [51] was > 100 µM (inactive). For the same compound, the GI50 [52] was > 100 µM (inactive), the GI50 [53] was > 100 µM (inactive) and the GI50 [54] was > 100 µM (inactive). The GI50 [55] was > 100 µM (inactive), the GI50 [56] was > 100 µM (inactive) and the GI50 [57] was > 100 µM (inactive). The GI50 [58] was > 100 µM (inactive).

Cc1nc(O)nc2nc3ccc(Cl)cc3c(NCCNCCO)c12 was tested, and the GI50 [1] was 16 µM (inactive), the GI50 [2] was 8.59 µM (inactive) and the GI50 [3] was 12.1 µM (inactive). For the same compound, the GI50 [4] was 8.77 µM (inactive), the GI50 [5] was 7.53 µM (inactive) and the GI50 [6] was 11.4 µM (inactive). For the same compound, the GI50 [7] was 12.3 µM (inactive), the GI50 [8] was 3.21 µM (inactive) and the GI50 [9] was 9.27 µM (inactive). The GI50 [10] was 13.7 µM (inactive), the GI50 [11] was 8.05 µM (inactive) and the GI50 [12] was 13.2 µM (inactive). For the same compound, the GI50 [13] was 18.7 µM (inactive), the GI50 [14] was 8.73 µM (inactive) and the GI50 [15] was 8.75 µM (inactive). For the same compound, the GI50 [16] was 16.3 µM (inactive), the GI50 [17] was 9.46 µM (inactive) and the GI50 [18] was 9.06 µM (inactive). The GI50 [19] was 10.3 µM (inactive), the GI50 [20] was 20.3 µM (inactive) and the GI50 [21] was 11.4 µM (inactive). The GI50 [22] was 10.1 µM (inactive), the GI50 [23] was 8.99 µM (inactive) and the GI50 [24] was 12.4 µM (inactive). For the same compound, the GI50 [25] was 14.9 µM (inactive), the GI50 [26] was 12.3 µM (inactive) and the GI50 [27] was 12.8 µM (inactive). The GI50 [28] was 13.6 µM (inactive), the GI50 [29] was 14.6 µM (inactive) and the GI50 [30] was 10.3 µM (inactive). For the same compound, the GI50 [31] was 17.9 µM, the GI50 [32] was 12.5 µM (inactive) and the GI50 [33] was 11.7 µM (inactive). For the same compound, the GI50 [34] was 14.3 µM (inactive), the GI50 [35] was 11.4 µM (inactive) and the GI50 [36] was 13.6 µM (inactive). For the same compound, the GI50 [37] was 12 µM (inactive), the GI50 [38] was 19.4 µM (inactive) and the GI50 [39] was 13.5 µM (inactive). The GI50 [40] was 8.07 µM (inactive), the GI50 [41] was 8.83 µM (inactive) and the GI50 [42] was 10.8 µM (inactive). The GI50 [43] was 7.18 µM (inactive), the GI50 [44] was 7.16 µM (inactive) and the GI50 [45] was 5.85 µM (inactive). The GI50 [46] was 12.2 µM (inactive), the GI50 [47] was 13.1 µM (inactive) and the GI50 [48] was 6.87 µM (inactive). The GI50 [49] was 17.5 µM (inactive), the GI50 [50] was 15.2 µM (inactive) and the GI50 [51] was 12.5 µM (inactive). For the same compound, the GI50 [52] was 13 µM (inactive), the GI50 [53] was 8.65 µM (inactive) and the GI50 [54] was 16.7 µM (inactive). The GI50 [55] was 90.4 µM (inactive), the GI50 [56] was 17.4 µM (inactive) and the GI50 [57] was 12.4 µM (inactive). For the same compound, the GI50 [58] was 42.9 µM (inactive).
